Two molecules from US20230338294A1, “NOVEL PHARMACEUTICAL FORMULATION FOR C-MET INHIBITOR” (APOLLOMICS INC., priority 2020, published 2023) can be followed below.

SMILES strings stand for the structures.

Data set [1] is described as follows: Two stage 'gastric transfer' non-sink biorelevant dissolution test. It counts as physicochemical. As to conditions: for Cmax FaSSIF: intestinal stage FaSSIF pH 6.8; for AUC35-210 FaSSIF: 35-210 minutes in FaSSIF; for C210: concentration at 210 minutes. How it is done:
Biorelevant drug dissolution performance for bulk API and subsequent ASDs was evaluated by Patheon's two stage ‘gastric transfer’ non-sink dissolution test, which simulates pH and bile salt concentrations for both gastric and intestinal exposure in a simple to perform assay. Pre-weighed powder is briefly suspended in media (e.g. by 10 sec vortex mixing with 4.0 mL media) and transferred to a pre-heated (37° C.) volume of 50 mL of 0.1N HCl (aq) pH ˜1.0, without pepsin or bile salts), in a USP Type 2 mini-vessel (100 mL total vessel volume) while stirring (paddles) at 100 rpm. After 30 minutes of gastric pH exposure, an equal volume of PBS buffered, 2× concentrated fasted-state simulated intestinal fluid (FaSSIF) is added to the HCl, resulting in a final pH of 6.8 in FaSSIF (100 mM PBS containing 2.24 mg/mL FaSSIF/FeSSIF/FaSSGF powder (Biorelevant Inc.) in a total volume of 100 mL. Aliquots (1.0 mL) of dissolution media are taken at the following time points: 10, 25, 35, 50, 70, 120 and 210 minutes. The first two aliquots are taken from the simulated gastric media, with the remaining five aliquots from the intestinal media. Aliquots are spun-down (13000 rpm) to pellet out undissolved solids, and the supernatant sampled and further diluted in an appropriate diluent to determine API total drug concentration (e.g. free and colloidal/polymer-bound drug in solution) utilizing a suitable HPLC method. The volume of FaSSIF added is adjusted to account for the sampling volume removed prior to gastric transfer (typically 4×1.0 mL). Initial API concentration in dissolution samples was determined utilizing a HPLC method.
The dissolution performance of the feasibility SDIs and bulk APL-101 was tested in a biorelevant non-sink dissolution experiment as described in EXAMPLE 1. The design of this experiment is to rank order and select lead formulations. […] 20% and 33% active HPMCAS-H and 20% active HPMC-E3LV and PVP-VA based formulations were nominated as the lead formulations.

Data set [2] can be described thus: Glass transition temperature (Tg) by modulated DSC. As to conditions: MDSC. It counts as physicochemical. On the procedure: DSC was performed using a TA Instruments Discovery DSC2500 differential scanning calorimeter equipped with a TA instruments Refrigerated Cooling System 90 operating in either modulated or ramp mode. DSC was used to measure thermodynamic events and characteristics of APL-101 bulk API and subsequent Spray Dried Intermediates (SDIs). Events observed include the glass transition temperature (Tg) defined as the temperature at which amorphous materials transition from a low mobility glassy state to a high mobility rubbery state, cold crystallization (Tc), defined as a crystallization event at a temperature lower than the melt temperature, and melting temperature (Tm). SDI samples were placed in non-hermetic aluminum pans and heated at a constant rate of 2.0° C./min over a 25-200° C. temperature range. The system was purged by nitrogen flow at 50 mL/min to ensure inert atmosphere through the course of measurement. APL-101 was initially analyzed by standard DSC with a heating rate of 10° C./min ramping up to 221° C. […] The resulting amorphous API was analyzed by modulated DSC to determine the glass transition temperature. […]
Thermal properties of bulk APL-101 were measured by DSC. Three API lots were tested, and it was determined that there were two API forms, Forms A and B, both of which are thought to be hydrates. […]

For `Cn1cc2cc(C(F)(F)c3nnc4ccc(-c5cnn(C6CC6)c5)nn34)c(F)cc2n1` [APL-101 Form B, 6-(1-cyclopropylpyrazol-4-yl)-3-[difluoro-(6-fluoro-2-methylindazol-5-yl)methyl]-[1,2,4]triazolo[4,3-b]pyridazine], the “Cmax FaSSIF” value was determined as 8.9 μgA/mL in data set [1] (Table 3, feasibility SDIs) and 8.9 μgA/mL in data set [1] (Table 6, prototype SDI). The “AUC35-210 FaSSIF” value in data set [1] (Table 3) and in data set [1] (Table 6) was 1400 min*μgA/mL in each case. Further, the C210 in data set [1] (Table 3) and in data set [1] (Table 6) was 7.8 μgA/mL in each case. In data set [2], this molecule registered a Tg of 89 °C. Also, in data set [2] (indicative of moderate physical stability), the Tm/Tg ratio is on record as 1.37 K/K.
Turning to `Cn1cc2cc(C(F)(F)c3nnc4ccc(-c5cnn(C6CC6)c5)nn34)c(F)cc2n1` [APL-101, 6-(1-cyclopropylpyrazol-4-yl)-3-[difluoro-(6-fluoro-2-methylindazol-5-yl)methyl]-[1,2,4]triazolo[4,3-b]pyridazine], the dissolution performance result in data set [1] (gastric and intestinal media, in words) is reported as “very low dissolution performance”.
